This assay concerns the target T1, Neutrophil elastase (Homo sapiens, UniProt P08246).
T1 sequence (P08246 whole entry): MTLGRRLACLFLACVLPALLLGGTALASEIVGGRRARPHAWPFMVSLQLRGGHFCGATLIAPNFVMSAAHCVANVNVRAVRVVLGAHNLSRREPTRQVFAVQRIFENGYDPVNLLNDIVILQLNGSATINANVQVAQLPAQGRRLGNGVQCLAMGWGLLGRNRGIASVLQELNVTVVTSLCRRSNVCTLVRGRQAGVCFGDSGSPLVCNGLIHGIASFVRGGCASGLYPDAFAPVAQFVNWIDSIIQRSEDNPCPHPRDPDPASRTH
Kind of assay: Inhibitory constant for human neutrophil elastase.

Data on 1 compound can be found in ChEMBL document CHEMBL1132529 (Bioorg Med Chem Lett, 1999).

Usually Ki stands for the dissociation constant of the complex between target and ligand, obtained from inhibition or displacement. As to `CC[C@@H](C)[C@H](NCc1ccccc1)C(=O)N[C@@H](CCCCNC(=O)C12CC3CC(CC(C3)C1)C2)C(=O)N[C@@H](CS)C(=O)N[C@H](C(=O)O)C(C)C`, the affinity, expressed as Ki, was 270 µM.
